From PubChem BioAssay AID262 (DTP/NCI, 2004) come the findings set out here.

The structures appear in SMILES notation. “And” between values parts separate entries of the source, which are not always exact repeats. Identical values can stand only once. Starred links: 1 amine or outer side, 2 acyl side, 3 side chain; linkers in the order of their positions; H or OH if unused. Positions of bridges follow the written chain, without caps; N, C: chain ends. Non-standard residues stand in square brackets, D forms with d. Residues, ends and D or L forms follow the SMILES beside them. Chains are numbered I, II in the order given. Actinocin(9to1) = Cc1c2oc3c(C)ccc(C(=O)[*:1])c3nc-2c(C(=O)[*:2])c(N)c1=O; aThr = C[C@H](O)[C@H](N)C(=O)O; NMeV = CN[C@H](C(=O)O)C(C)C; Sar = CNCC(=O)O

This test deals with LX-1 lung xenograft sc, nude mice, tumor weight. As to the kind of experiment: NCI In Vivo Anticancer Drug Screen. Data for tumor model Human Lung LX-1 Xenograft (subcutaneous) in NU/NU Swiss (nude) mice. Conditions: endpoint: optimum tumor weight change, higher = larger tumour. As to the method:
The antitumor activity of compounds was measured in mice bearing transplantable tumors. Survival or tumor size were measured and the results are expressed as the measurement made in the treated group (T) divided by the measurement made in the vehicle treated control group (C). The tumor model used in this assay is Human Lung LX-1 Xenograft (subcutaneous) in NU/NU Swiss (nude) mice

[1] abbreviates: dose: 25.0 mg/kg/injection, schedule: Q04DX003 (ip), vehicle: saline with Tween-80.
The mark [2] stands for this setting: dose: 50.0 mg/kg/injection, schedule: Q04DX003 (ip), vehicle: saline with Tween-80.
Setting [3] is: dose: 100.0 mg/kg/injection, schedule: Q04DX003 (ip), vehicle: suspension in saline.
Where [4] appears, read: dose: 50.0 mg/kg/injection, schedule: Q04DX003 (ip), vehicle: Klucel (hydroxypropylcellulose) (HPC).
Setting [5] is: dose: 4.0 mg/kg/injection, schedule: Q04DX003 (ip), vehicle: saline.
[6] abbreviates: dose: 16.0 mg/kg/injection, schedule: Q04DX003 (ip), vehicle: saline.
Setting [7] is: dose: 12.5 mg/kg/injection, schedule: Q04DX003 (ip), vehicle: Klucel (hydroxypropylcellulose) (HPC).
The mark [8] stands for this setting: dose: 25.0 mg/kg/injection, schedule: Q04DX003 (ip), vehicle: Klucel (hydroxypropylcellulose) (HPC).

As to `CN(CO)c1nc(N(C)CO)nc(N(C)CO)n1`, the T/C is, setting by setting: (dose: 25.0 mg/kg/injection, schedule: Q01DX005 (ip), vehicle: saline) 79 % of control and 226 % of control; (dose: 25.0 mg/kg/injection, schedule: Q04DX005 (ip), vehicle: saline) 114 % of control; (dose: 50.0 mg/kg/injection, schedule: Q01DX005 (ip), vehicle: saline) 59 % of control and 73 % of control; (dose: 50.0 mg/kg/injection, schedule: Q04DX005 (ip), vehicle: saline) 79 % of control and 84 % of control; (dose: 50.0 mg/kg/injection, schedule: Q07DX005 (ip), vehicle: saline) 29 % of control; (dose: 100.0 mg/kg/injection, schedule: Q01DX005 (ip), vehicle: saline) 102 % of control and 122 % of control. The T/C by setting is: (dose: 100.0 mg/kg/injection, schedule: Q04DX005 (ip), vehicle: saline) 93 % of control; (dose: 100.0 mg/kg/injection, schedule: Q07DX005 (ip), vehicle: saline) 26 % of control and 33 % of control; (dose: 200.0 mg/kg/injection, schedule: Q01DX005 (ip), vehicle: saline) -5 % of control; (dose: 200.0 mg/kg/injection, schedule: Q07DX005 (ip), vehicle: saline) 49 % of control and 55 % of control.
For the compound `COc1cccc2c1C(=O)c1c(O)c3c(c(O)c1C2=O)C[C@@](O)(C(=O)CO)C[C@@H]3OC1CC(N)C(O)C(C)O1` (stereo partly drawn), where the note is “dose: 4.0 mg/kg/injection, schedule: Q04DX003 (ip), vehicle: water”, the T/C was 81 % of control.
For the compound `Cc1c2oc3c(C)ccc(C(=O)N[C@@H]4C(=O)N[C@H](C(C)C)C(=O)N5CCC[C@H]5C(=O)N(C)CC(=O)N(C)[C@@H](C(C)C)C(=O)O[C@H]4C)c3nc-2c(C(=O)N[C@@H]2C(=O)N[C@H](C(C)C)C(=O)N3CCC[C@H]3C(=O)N(C)CC(=O)N(C)[C@@H](C(C)C)C(=O)O[C@H]2C)c(N)c1=O` (I: [aThr][dV]P[Sar][NMeV] / II: [aThr][dV]P[Sar][NMeV]; ester I:1-I:C, II:1-II:C; linker I:N-II:N via Actinocin(9to1)), the T/C is, setting by setting: (dose: 150.0 micrograms/kg/injection, schedule: Q04DX003 (ip), vehicle: saline) 122 % of control; (dose: 300.0 micrograms/kg/injection, schedule: Q04DX003 (ip), vehicle: saline) 106 % of control.
Turning to `CCN(CC)CCCC(C)Nc1c2ccc(Cl)cc2nc2ccc(OC)cc12` (stereo not drawn), the T/C is, setting by setting: under setting [1], 119 % of control; under setting [2], 99 % of control; (dose: 100.0 mg/kg/injection, schedule: Q04DX003 (ip), vehicle: saline with Tween-80) 108 % of control.
For `CC(CN1CC(=O)NC(=O)C1)N1CC(=O)NC(=O)C1` (stereo not drawn), the T/C is, setting by setting: (dose: 50.0 mg/kg/injection, schedule: Q04DX003 (ip), vehicle: suspension in saline) 70 % of control; under setting [3], 53 % of control.
For `O=S(CCCl)CCCl`, the T/C under setting [4] is 61 % of control.
`O=Cc1ccc(O)c(O)c1`: the T/C was 91 % of control (dose: 12.5 mg/kg/injection, schedule: Q04DX003 (ip), vehicle: saline with Tween-80); 107 % of control under setting [1]; 114 % of control under setting [2].
Take `Cc1c(N)nc([C@H](CC(N)=O)NC[C@H](N)C(N)=O)nc1C(=O)N[C@H](C(=O)N[C@H](C)[C@@H](O)[C@H](C)C(=O)N[C@H](C(=O)NCCc1nc(-c2nc(C(=O)NCCC[S+](C)C)cs2)cs1)[C@@H](C)O)C(OC1OC(CO)C(O)C(O)C1OC1OC(CO)C(O)C(OC(N)=O)C1O)c1cnc[nH]1` (stereo partly drawn): the T/C was 45 % of control (dose: 3.75 mg/kg/injection, schedule: Q04DX003 (ip), vehicle: saline); 70 % of control under setting [5]; 49 % of control and 56 % of control and 63 % of control under setting [6]; 33 % of control and 55 % of control (dose: 30.0 mg/kg/injection, schedule: Q04DX003 (ip), vehicle: saline); 8 % of control and 21 % of control (dose: 60.0 mg/kg/injection, schedule: Q04DX003 (ip), vehicle: saline).
Take `O=C(NO)c1ccccc1`: the T/C by setting is: under setting [3], 95 % of control; (dose: 200.0 mg/kg/injection, schedule: Q04DX003 (ip), vehicle: suspension in saline) 68 % of control and 84 % of control; (dose: 400.0 mg/kg/injection, schedule: Q04DX003 (ip), vehicle: suspension in saline) 55 % of control and 80 % of control; (dose: 800.0 mg/kg/injection, schedule: Q04DX003 (ip), vehicle: suspension in saline) 85 % of control.
In the case of `CCC1=C[C@H]2CN(CCc3c([nH]c4ccccc34)[C@@](C(=O)OC)(c3cc4c(cc3OC)N(C)[C@H]3[C@@](O)(C(=O)NC)[C@H](OC(C)=O)[C@]5(CC)C=CCN6CC[C@]43[C@@H]65)C2)C1`, the T/C (dose: 0.25 mg/kg/injection, schedule: Q04DX003 (ip), vehicle: water) was 69 % of control; the T/C (dose: 0.5 mg/kg/injection, schedule: Q04DX003 (ip), vehicle: water) is 40 % of control; the T/C (dose: 1.0 mg/kg/injection, schedule: Q04DX003 (ip), vehicle: water) is 98 % of control.
In the case of `CN(C)N=Nc1cccc(C(N)=O)c1`, the T/C reads like this: under setting [7], 98 % of control; under setting [8], 36 % of control.
`Oc1cc2c3c(c1)c1cc4c(cc1c[n+]3CC2)OCO4`: the T/C (dose: 12.5 mg/kg/injection, schedule: Q04DX003 (ip), vehicle: water) was 78 % of control; the T/C (dose: 25.0 mg/kg/injection, schedule: Q04DX003 (ip), vehicle: water) was 63 % of control; the T/C (dose: 50.0 mg/kg/injection, schedule: Q04DX003 (ip), vehicle: water) was 62 % of control.
On to `C=CC(=O)N1CN(C(=O)C=C)CN(C(=O)C=C)C1`, for which the T/C runs as follows: (dose: 1.5 mg/kg/injection, schedule: Q04DX003 (ip), vehicle: saline with Tween-80) 89 % of control; (dose: 3.0 mg/kg/injection, schedule: Q04DX003 (ip), vehicle: saline with Tween-80) 62 % of control; (dose: 6.0 mg/kg/injection, schedule: Q04DX003 (ip), vehicle: saline with Tween-80) 80 % of control.
As for `CN1CCN(CCCN2c3ccccc3Sc3ccc(C(F)(F)F)cc32)CC1`, the T/C is 63 % of control (dose: 6.25 mg/kg/injection, schedule: Q04DX003 (ip), vehicle: saline); 78 % of control (dose: 12.5 mg/kg/injection, schedule: Q04DX003 (ip), vehicle: saline); 84 % of control (dose: 25.0 mg/kg/injection, schedule: Q04DX003 (ip), vehicle: saline).
As for `CC[C@](O)(C(=O)O)c1cc2n(c(=O)c1CO)Cc1cc3ccccc3nc1-2`, the T/C is 40 % of control (dose: 1.0 mg/kg/injection, schedule: Q04DX003 (ip), vehicle: saline); 26 % of control and 40 % of control under setting [5]; 32 % of control and 35 % of control (dose: 8.0 mg/kg/injection, schedule: Q04DX003 (ip), vehicle: saline); 29 % of control under setting [6].
With `O=[N+]([O-])/C=C\c1ccc2c(c1)OCO2`, the T/C under setting [7] is 89 % of control; the T/C under setting [8] was 63 % of control and 88 % of control; the T/C under setting [4] is 64 % of control and 73 % of control; the T/C (dose: 100.0 mg/kg/injection, schedule: Q04DX003 (ip), vehicle: Klucel (hydroxypropylcellulose) (HPC)) was 103 % of control.
